Results reported in ChEMBL document CHEMBL1125524, “Adenosine A1 antagonists. 2. Structure-activity relationships on diuretic activities and protective effects against acute renal failure” (J Med Chem, 1992).

What was measured:
Rattus norvegicus [1] = assay: Ratio of sodium ion/potassium ion concentration in treated rats to that in control rats, at a peroral dose of 25 mg/Kg; format: functional
Rattus norvegicus [2] = assay: Urea nitrogen concentration measured after intraperitoneal administration of 10 mg/kg of compound to rats(vehicle 137.9+/-8.5); format: functional
Rattus norvegicus [3] = assay: Percent inhibition of Urea nitrogen by the compound given as ratio of UN value in treated to vehicle treated ones fter intraperitoneal administration of 10 mg/kg of compound to rats(vehicle 137.9+/-8.5); format: functional; settings: ip
Rattus norvegicus [4] = assay: Effect on urinary excretion potassium and sodium after oral administration of 25 mg/kg to rats(potassium and sodium excretion in control rat is 0.160+/-0.017); format: functional, Urine
Rattus norvegicus [5] = assay: Oral diuretic activity was measured after oral administration of 25 mg/kg to rats(control volume is 0.80+/-0.13); format: functional, Urine
Adenosine A2 receptor = Adenosine A2 receptor (Rattus norvegicus, UniProt P29276+P30543)
Rattus norvegicus [6] = assay: Ratio of urinary excretion value (Na+ concentration) in treated rats to that in control rats, at a peroral dose of 25 mg/Kg; format: functional, Urine
Rattus norvegicus [7] = assay: Ratio of urinary excretion value (urinary volume) in treated rats to that in control rats, at a peroral dose of 25 mg/Kg; format: functional, Urine
Adenosine receptor A1 = molecular target: T1, Adenosine receptor A1 (Cavia porcellus, UniProt P47745)
T1 sequence (P47745 whole entry): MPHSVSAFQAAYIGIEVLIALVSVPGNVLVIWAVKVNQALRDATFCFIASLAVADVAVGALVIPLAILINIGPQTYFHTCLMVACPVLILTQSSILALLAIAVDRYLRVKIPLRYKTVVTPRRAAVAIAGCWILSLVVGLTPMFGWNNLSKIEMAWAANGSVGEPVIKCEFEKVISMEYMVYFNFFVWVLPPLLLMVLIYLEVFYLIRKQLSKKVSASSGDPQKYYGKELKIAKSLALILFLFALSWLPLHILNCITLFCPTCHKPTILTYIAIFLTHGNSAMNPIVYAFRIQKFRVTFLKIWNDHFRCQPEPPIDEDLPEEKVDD
Description: Binding affinity against adenosine A1 receptor in guinea pig forebrain membranes using N6-[3H]cyclohexyladenosine as radioligand

Rattus norvegicus [8] = assay: Percent inhibition of serum creatinine by the compound given as ratio of Cr value in treated to vehicle treated ones after intraperitoneal administration of 10 mg/kg of compound to rats (vehicle0.63+/-0.29); format: functional; settings: ip
Rattus norvegicus [9] = assay: Serum creatinine concentration measured after intraperitoneal administration of 10 mg/kg of compound to rats (vehicle0.63+/-0.29); format: functional
Rattus norvegicus [10] = assay: Ratio of sodium ion/potassium ion concentration in treated rats to that in control rats, at a peroral dose of 0.1 mg/Kg; format: functional
Rattus norvegicus [11] = assay: Oral diuretic activity was measured after oral administration of 25 mg/kg to rats(control volume is 0.66+/-0.04); format: functional, Urine
Rattus norvegicus [12] = assay: Ratio of urinary excretion value (Na+ concentration) in treated rats to that in control rats, at a peroral dose of 1.6 mg/Kg; format: functional, Urine
Rattus norvegicus [13] = assay: Ratio of urinary excretion value (urinary volume) in treated rats to that in control rats, at a peroral dose of 0.025 mg/Kg; format: functional, Urine
Rattus norvegicus [14] = assay: Ratio of urinary excretion value (urinary volume) in treated rats to that in control rats, at a peroral dose of 0.4 mg/Kg; format: functional, Urine
Rattus norvegicus [15] = assay: Ratio of urinary excretion value (urinary volume) in treated rats to that in control rats, at a peroral dose of 6.25 mg/Kg; format: functional, Urine
Rattus norvegicus [16] = assay: Ratio of sodium ion/potassium ion concentration in treated rats to that in control rats, at a peroral dose of 0.4 mg/Kg; format: functional
Rattus norvegicus [17] = assay: Oral diuretic activity was measured after oral administration of 0.4 mg/kg to rats(control volume is 1.4+/-0.05); format: functional, Urine
Rattus norvegicus [18] = assay: Ratio of urinary excretion value (Na+ concentration) in treated rats to that in control rats, at a peroral dose of 0.005 mg/Kg; format: functional, Urine
Rattus norvegicus [19] = assay: Oral diuretic activity was measured after oral administration of 0.1 mg/kg to rats(control volume is 0.92+/-0.05); format: functional, Urine
Rattus norvegicus [20] = assay: Ratio of urinary excretion value (Na+ concentration) in treated rats to that in control rats, at a peroral dose of 0.025 mg/Kg; format: functional, Urine
Rattus norvegicus [21] = assay: Serum creatinine concentration measured after intraperitoneal administration of 1 mg/kg of compound to rats(vehicle 2.75+/-0.43); format: functional
Rattus norvegicus [22] = assay: Ratio of sodium ion/potassium ion concentration in treated rats to that in control rats, at a peroral dose of 0.0025 mg/Kg; format: functional
Rattus norvegicus [23] = assay: Ratio of urinary excretion value (Na+ concentration) in treated rats to that in control rats, at a peroral dose of 0.0025 mg/Kg; format: functional, Urine
Rattus norvegicus [24] = assay: Effect on urinary excretion potassium and sodium after oral administration of 1.6 mg/kg to rats(potassium and sodium excretion in control rat is 0.173+/-0.016); format: functional, Urine
Rattus norvegicus [25] = assay: Effect on urinary excretion potassium and sodium after oral administration of 0.005 mg/kg to rats(potassium and sodium excretion in control rat is 0.160+/-0.006); format: functional, Urine
Rattus norvegicus [26] = assay: Effect on urinary excretion potassium and sodium after oral administration of 0.1 mg/kg to rats(potassium and sodium excretion in control rat is 0.143+/-0.013); format: functional, Urine
Rattus norvegicus [27] = assay: Ratio of sodium ion/potassium ion concentration in treated rats to that in control rats, at a peroral dose of 0.005 mg/Kg; format: functional
Rattus norvegicus [28] = species on record: Rattus norvegicus; format: functional, Urine; settings: po, 1.6 mg/kg
Rattus norvegicus [29] = assay: Percent inhibition of serum creatinine by the compound given as ratio of Cr value in treated to vehicle treated ones after intraperitoneal administration of 1 mg/kg of compound to rats(vehicle 2.75+/-0.43); format: functional; settings: ip
Rattus norvegicus [30] = assay: Effect on urinary excretion potassium and sodium after oral administration of 25 mg/kg to rats(potassium and sodium excretion in control rat is 0.138+/-0.008); format: functional, Urine
Rattus norvegicus [31] = assay: Ratio of urinary excretion value (Na+ concentration) in treated rats to that in control rats, at a peroral dose of 0.4 mg/Kg; format: functional, Urine
Rattus norvegicus [32] = assay: Oral diuretic activity was measured after oral administration of 0.005 mg/kg to rats(control volume is 0.76+/-0.01); format: functional, Urine
Rattus norvegicus [33] = assay: Ratio of urinary excretion value (urinary volume) in treated rats to that in control rats, at a peroral dose of 0.0025 mg/Kg; format: functional, Urine
Rattus norvegicus [34] = assay: Effect on urinary excretion potassium and sodium after oral administration of 0.4 mg/kg to rats(potassium and sodium excretion in control rat is 0.261+/-0.008); format: functional, Urine
Rattus norvegicus [35] = assay: Ratio of sodium ion/potassium ion concentration in treated rats to that in control rats, at a peroral dose of 0.025 mg/Kg; format: functional
Rattus norvegicus [36] = assay: Effect on urinary excretion potassium and sodium after oral administration of 0.0025 mg/kg to rats(potassium and sodium excretion in control rat is 0.146+/-0.006); format: functional, Urine
Rattus norvegicus [37] = assay: Ratio of urinary excretion value (urinary volume) in treated rats to that in control rats, at a peroral dose of 1.6 mg/Kg; format: functional, Urine
Rattus norvegicus [38] = assay: Ratio of urinary excretion value (urinary volume) in treated rats to that in control rats, at a peroral dose of 0.005 mg/Kg; format: functional, Urine
Rattus norvegicus [39] = assay: Urea nitrogen concentration measured after intraperitoneal administration of 1 mg/kg of compound to rats(vehicle 123.2+/-14.2); format: functional
Rattus norvegicus [40] = assay: Ratio of sodium ion/potassium ion concentration in treated rats to that in control rats, at a peroral dose of 1.6 mg/Kg; format: functional
Rattus norvegicus [41] = assay: Effect on urinary excretion potassium and sodium after oral administration of 0.025 mg/kg to rats(potassium and sodium excretion in control rat is 0.183+/-0.012); format: functional, Urine
Rattus norvegicus [42] = assay: Oral diuretic activity was measured after oral administration of 0.0025 mg/kg to rats(control volume is 0.95+/-0.12); format: functional, Urine
Rattus norvegicus [43] = assay: Ratio of urinary excretion value (urinary volume) in treated rats to that in control rats, at a peroral dose of 0.1 mg/Kg; format: functional, Urine
Rattus norvegicus [44] = assay: Ratio of urinary excretion value (Na+ concentration) in treated rats to that in control rats, at a peroral dose of 6.25 mg/Kg; format: functional, Urine
Rattus norvegicus [45] = assay: Percent inhibition of Urea nitrogen by the compound given as ratio of UN value in treated to vehicle treated ones after intraperitoneal administration of 1 mg/kg of compound to rats(vehicle 123.2+/-14.2); format: functional; settings: ip
Rattus norvegicus [46] = assay: Ratio of urinary excretion value (Na+ concentration) in treated rats to that in control rats, at a peroral dose of 0.1 mg/Kg; format: functional, Urine
Rattus norvegicus [47] = assay: Oral diuretic activity was measured after oral administration of 0.025 mg/kg to rats(control volume is 0.82+/-0.05); format: functional, Urine

With `CCCn1c(=O)c2nc(CC34CC5CC(CC(C5)C3)C4)[nH]c2n(CCC)c1=O` the “Na+/K+” value (Rattus norvegicus [1]) was 0.84, the UN (Rattus norvegicus [2]) was 117.8 mg/dL and the inhibition in vivo at 10 mg/kg (Rattus norvegicus [3]) was 15%. It also gave a Na (Rattus norvegicus [4]) of 0.108 m equiv 6hr-1 100g-1, a Urine volume (Rattus norvegicus [5]) of 0.51 ml 6hr-1 100g-1 and a Ki (Adenosine A2 receptor) of over 100000 nM. The T/C (Rattus norvegicus [6]) was 0.67, the T/C (Rattus norvegicus [7]) was 0.64 and the Ki (Adenosine receptor A1) was 880 nM. For the same compound, the inhibition in vivo at 10 mg/kg (Rattus norvegicus [8]) was 12% and the Cr (Rattus norvegicus [9]) was 3.21 mg/dL.

With `CCCn1c(=O)c2nc(C34CC5CC(CC3C5)C4)[nH]c2n(CCC)c1=O` [ROLOFYLLINE] the “Na+/K+” value (Rattus norvegicus [10]) was 1.9, the Urine volume (Rattus norvegicus [11]) was 2.74 ml 6hr-1 100g-1 and the T/C (Rattus norvegicus [12]) was 2.3. For the same compound, the “Na+/K+” value (Rattus norvegicus [1]) was 2.05, the T/C (Rattus norvegicus [13]) was 2.13 and the T/C (Rattus norvegicus [14]) was 1.86. The T/C (Rattus norvegicus [15]) was 2.9, the “Na+/K+” value (Rattus norvegicus [16]) was 1.42 and the Urine volume (Rattus norvegicus [17]) was 2.64 ml 6hr-1 100g-1. For the same compound, the T/C (Rattus norvegicus [18]) was 1.6, the Urine volume (Rattus norvegicus [19]) was 2.44 ml 6hr-1 100g-1 and the T/C (Rattus norvegicus [20]) was 1.81. The Cr (Rattus norvegicus [21]) was 2 mg/dL, the “Na+/K+” value (Rattus norvegicus [22]) was 1.59 and the T/C (Rattus norvegicus [23]) was 1.76. For the same compound, the Na (Rattus norvegicus [24]) was 0.399 m equiv 6hr-1 100g-1, the Na (Rattus norvegicus [25]) was 0.256 m equiv 6hr-1 100g-1 and the Na (Rattus norvegicus [26]) was 0.334 m equiv 6hr-1 100g-1. For the same compound, the “Na+/K+” value (Rattus norvegicus [27]) was 1.11, the Urine volume (Rattus norvegicus [28]) was 2.77 ml 6hr-1 100g-1 and the inhibition in vivo at 1 mg/kg (Rattus norvegicus [29]) was 47%. The Ki (Adenosine A2 receptor) was 380 nM, the T/C (Rattus norvegicus [6]) was 3.44 and the Na (Rattus norvegicus [30]) was 0.457 m equiv 6hr-1 100g-1. The T/C (Rattus norvegicus [7]) was 4.15, the T/C (Rattus norvegicus [31]) was 1.7 and the Urine volume (Rattus norvegicus [32]) was 1.39 ml 6hr-1 100g-1. The T/C (Rattus norvegicus [33]) was 1.69, the Na (Rattus norvegicus [34]) was 0.447 m equiv 6hr-1 100g-1 and the “Na+/K+” value (Rattus norvegicus [35]) was 1.45. It also gave a Na (Rattus norvegicus [36]) of 0.258 m equiv 6hr-1 100g-1, a T/C (Rattus norvegicus [37]) of 2.61 and a T/C (Rattus norvegicus [38]) of 1.83. For the same compound, the UN (Rattus norvegicus [39]) was 66.4 mg/dL, the “Na+/K+” value (Rattus norvegicus [40]) was 1.93 and the Na (Rattus norvegicus [41]) was 0.331 m equiv 6hr-1 100g-1. For the same compound, the Urine volume (Rattus norvegicus [42]) was 1.61 ml 6hr-1 100g-1, the T/C (Rattus norvegicus [43]) was 2.65 and the T/C (Rattus norvegicus [44]) was 2.64. It also gave an inhibition in vivo at 1 mg/kg (Rattus norvegicus [45]) of 46%, a T/C (Rattus norvegicus [46]) of 2.34 and a Urine volume (Rattus norvegicus [47]) of 1.75 ml 6hr-1 100g-1.
